Reference: publication PMC3906007, “Discovery of a Small Molecule Agonist of Phosphatidylinositol 3-Kinase p110α That Reactivates Latent HIV-1” (PLoS ONE, 2014)

Assays:
Assay type in all cases: cell-based
[1] = Cytotoxicity (MTT or CellTiter 96), HeLa; details: human, HeLa cells; 24 hour incubation; mean ± SD, 3 replicates
Experimental: Following a 24 hour incubation period, cell viability was measured using either the MTT (Roche Applied Science, Indianapolis, IN) or CellTiter 96 proliferation (Promega, WI) assay.

[2] = tested on: latent HIV-1 in J89GFP cells; assay: Latent HIV-1 reactivation in J89GFP cells (EGFP positive cells, flow cytometry)
Experimental: Three different cell lines of HIV-1 latency were used in this study. These included J89GFP, U1 and ACH-2 cells. The J89GFP cells were a kind gift from Dr. David Levy. The ACH-2 and U1 cells were obtained through the AIDS Research and Reference Reagent Program, Division of AIDS, NIAID, NIH: Dr. Thomas Folks contributor [19]–[21]. Reactivation of latent HIV-1 in the J89GFP cells was measured by quantifying the percentage of EGFP positive cells using a BD FACScan flow cytometer with BD FACSDiva software (BD Biosciences, CA), as described previously. Reactivation of latent HIV-1 in the ACH-2 and U 1 cells was assessed by quantitative analysis of initiated and elongated HIV-1 transcripts, as described previously. All 3 cell lines were maintained in RMPI 1640 medium supplemented with 10% FBS, 0.3 mg/mL L-glutamine, 100 U/mL penicillin, and 100 µg/mL streptomycin at 37°C in humidified air with 5% CO2.
To identify novel activators of latent HIV-1 expression, we screened 640 pure natural products from the TimTec Natural Compound Library at a concentration of 10 ng/mL for 24 hrs in a Jurkat cell (J89GFP) model of latency for their cytotoxicity and ability to reactivate HIV-1 expression. J89GFP cells contain a stably integrated, full-length HIV-1 provirus with an enhanced GFP (EGFP) reporter incorporated into the viral genome. The viral genome in these cells is transcriptionally silent. However, upon stimulation viral transcription is activated and viral expression can be measured by EGFP production. […].

PI3K p110γ RNA = assay: PI3K isoform RNA transcript levels in J89GFP cells, p110γ; details: 5 µM

COc1cc2c(cc1OC)-c1c(OC)c(OC)cc3ccnc(c13)C2=O [Compound 57704, 1,2,9,10-tetramethoxy-7H-dibenzo[de,g]quinolin-7-one]
CC50 at 24 h [1]: 293 ± 56.4 µM | EC50 ([2]; Human immunodeficiency virus 1, read-out: EC50, reactivation of latent HIV-1 gene expression): 10.3 ± 1.2 µM | Latent HIV-1 reactivation activity in presence of PI3K inhibitor wortmannin ([2]; J89GFP, 20 nM wortmannin): significantly attenuated | Latent HIV-1 reactivation activity in presence of p38 MAPK inhibitor SB203580 ([2]; J89GFP, 50 nM SB203580): unaffected | Latent HIV-1 reactivation activity in presence of Akt Inhibitor IV ([2]; J89GFP, 500 nM Akt Inhibitor IV): significantly attenuated | Latent HIV-1 reactivation activity in presence of PKC inhibitor Gö6983 ([2]; J89GFP, 500 nM Go6983): unaffected | Latent HIV-1 reactivation activity in presence of JNK inhibitor SP600125 ([2]; J89GFP, 1 µM SP00125): unaffected | Latent HIV-1 reactivation activity in presence of NFAT/calcineurin inhibitor cyclosporin A ([2]; J89GFP, 1 µM cyclosporin A): unaffected | Latent HIV-1 reactivation activity in presence of PI3K p110γ inhibitor AS-605240 ([2]; J89GFP, 2 µM AS-605240): moderately enhanced | Latent HIV-1 reactivation activity in presence of PI3K p110α specific inhibitor PI-103 ([2]; J89GFP, 2 µM PI-103): significantly attenuated | Latent HIV-1 reactivation activity in presence of PI3K p110β inhibitor TGX-221 ([2]; J89GFP, 2 µM TGX-221): moderately enhanced | Latent HIV-1 reactivation activity in presence of PI3K p110δ inhibitor IC87114 ([2]; J89GFP, 5 µM IC87114): not reduced | Latent HIV-1 reactivation activity in presence of pan PI3K inhibitor LY 294002 ([2]; J89GFP, 15 µM LY294002): significantly attenuated | Latent HIV-1 reactivation activity in presence of NF-κB inhibitor 6-amino-4-(4-phenoxyphenylethylamino) quinazoline ([2]; J89GFP, 20 µM NF-κB activation inhibitor): significantly attenuated | Effect on PI3K p110γ RNA transcript levels (PI3K p110γ RNA): no effect
